The values that follow come from patent publication US20090137667A1, “Pesticide Delivery System” (priority 2006, published 2009).

A short description of the first series: log P measured by the procedure of Donovan and Pescatore, internally standardized with toluene and triphenylene. Type of series: physicochemical. Conditions: pH 2, logP, Average. The protocol: Compositions of herbicides were prepared using melts of mixtures of nonionic block copolymer and ethoxylated surfactants. Specifically, tristyrylphenol etoxylate (Soprophor BSU, Rhodia) was used in combination with Pluronic P123 (PEO20-PPO69-PEO20). The list of the herbicides and corresponding log P values (the log P values were measured according procedure described by Donovan and Pescatore, J Chromatography A 2002, 952, 47-61) are presented in Table 22. All log P values were measured at pH 7, except for clethodim, measured at pH 2. First, a stock blend of Pluronic P123 and Soprophor BSU was prepared by melting together 50 g of Pluronic P123 with 50 g of Soprophor BSU at 70° C. to form a clear, homogeneous melt. Composition of the […]
As to `CCCCOCN(C(=O)CCl)c1c(CC)cccc1CC` [Butachlor], the chromatographic logP was determined as 4.12.
Consider `CCCCOC(=O)C(C)Oc1ccc(Oc2ccc(C(F)(F)F)cn2)cc1` (centres unmarked) [Fluazifop-butyl], for which the chromatographic logP was 4.44.
With `OC(Cn1cncn1)(c1ccc(F)cc1)c1ccccc1F` (centres unmarked) [Flutriafol], the chromatographic logP turned out to be 2.12.
Regarding `CCCCC(O)(Cn1cncn1)c1ccc(Cl)cc1Cl` (centres unmarked) [Hexaconazole], the chromatographic logP amounted to 3.35.
Turning to `CCCOC/C(=N\c1ccc(Cl)cc1C(F)(F)F)n1ccnc1` [Triflumizole], the chromatographic logP turned out to be 2.6.

The same series, now with this note: pH 2, measured at pH 2 (Table 22); read-out: Log P.
In the case of `CCSC(C)CC1CC(=O)C(/C(CC)=N/OC/C=C/Cl)=C(O)C1` (centres unmarked) [Clethodim], the chromatographic logP is 4.24.

The series is the same for the next values; noted with them: pH 2, pH = 2; based on logP assigned to toluene 2.605 and triphenylene 6.266; read-out: logP, Average.
As to `CCSC(C)CC1CC(=O)C(/C(CC)=N/OC/C=C/Cl)=C(O)C1` (centres unmarked) [Clethodim], the chromatographic logP amounted to 4.25.
Regarding `O=C(Nc1ccc(F)cc1F)c1cccnc1Oc1cccc(C(F)(F)F)c1` [Diflufenican], the chromatographic logP is 4.81.
Consider `CSC(=O)c1c(C(F)F)nc(C(F)(F)F)c(C(=O)SC)c1CC(C)C` [Dithiopyr], for which the chromatographic logP turned out to be 4.32.
For the molecule `O=[N+]([O-])c1cc(C(F)(F)F)c(Cl)c([N+](=O)[O-])c1Nc1ncc(C(F)(F)F)cc1Cl` [Fluazinam], the chromatographic logP is 5.03.
With `CCCCCCCC(=O)Oc1c(I)cc(C#N)cc1I` [Ioxynil Octanoate], the chromatographic logP came out at 5.67.
Turning to `CCCCC(C#N)(Cn1cncn1)c1ccc(Cl)cc1` (centres unmarked) [Myclobutanil], the chromatographic logP amounted to 2.44.
In the case of `O=[N+]([O-])c1c(Cl)c(Cl)c(Cl)c(Cl)c1Cl` [Pentachloronitrobenzene], the chromatographic logP turned out to be 5.39.
Regarding `CCCC1COC(Cn2cncn2)(c2ccc(Cl)cc2Cl)O1` (centres unmarked) [Propiconazole], the chromatographic logP was found to be 3.3.
For the molecule `COC(=O)N(OC)c1ccccc1COc1ccn(-c2ccc(Cl)cc2)n1` [Pyraclostrobin], the chromatographic logP is 4.53.
Consider `CC(C)(C)C(O)(CCc1ccc(Cl)cc1)Cn1cncn1` (centres unmarked) [Tebuconazole], for which the chromatographic logP is 3.44.

Still in this series, the particulars now being: pH 2; read-out: logP, Average.
For `COP(=S)(OC)Oc1c(Cl)cc(C)cc1Cl` [Tolclofos-methyl], the chromatographic logP was determined as 4.42.

Staying with this series, now noted: pH 7, Log P.
Consider `CCCCOCN(C(=O)CCl)c1c(CC)cccc1CC` [Butachlor], for which the chromatographic logP was determined as 4.15.
The same measure, in the same setting: with `CCCCOC(=O)C(C)Oc1ccc(Oc2ccc(C(F)(F)F)cn2)cc1` (centres unmarked) [Fluazifop-butyl] the figure was 4.42.

Still in this series, the particulars now being: pH 7, logP, Average.
Take `CCCCOCN(C(=O)CCl)c1c(CC)cccc1CC` [Butachlor]: the chromatographic logP came to 4.15.
Turning to `CCCCOC(=O)C(C)Oc1ccc(Oc2ccc(C(F)(F)F)cn2)cc1` (centres unmarked) [Fluazifop-butyl], the chromatographic logP amounted to 4.42.
Turning to `OC(Cn1cncn1)(c1ccc(F)cc1)c1ccccc1F` (centres unmarked) [Flutriafol], the chromatographic logP was 2.04.
Consider `CCCCC(O)(Cn1cncn1)c1ccc(Cl)cc1Cl` (centres unmarked) [Hexaconazole], for which the chromatographic logP was found to be 3.31.

The same series, now with this note: pH 7, measured at pH 7 (Table 22); read-out: Log P.
As for `O=C(Nc1ccc(F)cc1F)c1cccnc1Oc1cccc(C(F)(F)F)c1` [Diflufenican], the chromatographic logP worked out at 4.76.
On the same count and under the same terms, with `CSC(=O)c1c(C(F)F)nc(C(F)(F)F)c(C(=O)SC)c1CC(C)C` [Dithiopyr] the figure was 4.28; with `CCCCCCCC(=O)Oc1c(I)cc(C#N)cc1I` [Ioxynil Octanoate], 5.6.

The series is the same for the next values; noted with them: pH 7, pH = 7; based on logP assigned to toluene 2.605 and triphenylene 6.266; read-out: logP, Average.
For the molecule `CCSC(C)CC1CC(=O)C(/C(CC)=N/OC/C=C/Cl)=C(O)C1` (centres unmarked) [Clethodim], the chromatographic logP was 0.813.
On to `O=C(Nc1ccc(F)cc1F)c1cccnc1Oc1cccc(C(F)(F)F)c1` [Diflufenican], for which the chromatographic logP turned out to be 4.76.
Same read-out and setting: with `CSC(=O)c1c(C(F)F)nc(C(F)(F)F)c(C(=O)SC)c1CC(C)C` [Dithiopyr] the figure was 4.28.
For the molecule `O=[N+]([O-])c1cc(C(F)(F)F)c(Cl)c([N+](=O)[O-])c1Nc1ncc(C(F)(F)F)cc1Cl` [Fluazinam], the chromatographic logP was determined as 4.72.
Regarding `CCCCCCCC(=O)Oc1c(I)cc(C#N)cc1I` [Ioxynil Octanoate], the chromatographic logP was 5.6.
In the case of `CCCCC(C#N)(Cn1cncn1)c1ccc(Cl)cc1` (centres unmarked) [Myclobutanil], the chromatographic logP is 2.8.
As to `O=[N+]([O-])c1c(Cl)c(Cl)c(Cl)c(Cl)c1Cl` [Pentachloronitrobenzene], the chromatographic logP is 5.34.
For `CCCC1COC(Cn2cncn2)(c2ccc(Cl)cc2Cl)O1` (centres unmarked) [Propiconazole], the chromatographic logP was found to be 3.29.
On the same count and under the same terms, with `COC(=O)N(OC)c1ccccc1COc1ccn(-c2ccc(Cl)cc2)n1` [Pyraclostrobin] the figure was 4.49; with `CC(C)(C)C(O)(CCc1ccc(Cl)cc1)Cn1cncn1` (centres unmarked) [Tebuconazole], 3.49.
On the same count and under the same terms, with `CCCOC/C(=N\c1ccc(Cl)cc1C(F)(F)F)n1ccnc1` [Triflumizole] the figure was 3.89.

The series is the same for the next values; noted with them: pH = 2; based on logP assigned to toluene 2.605 and triphenylene 6.266.
On to `CO/C=C(/C(=O)OC)c1ccccc1Oc1cc(Oc2ccccc2C#N)ncn1` [Azoxystrobin], for which the “logP, Average” value is 3.074.
For the molecule `N#Cc1c(Cl)c(Cl)c(Cl)c(C#N)c1Cl` [Chlorthalonil], the “logP, Average” value was 4.357.
As to `C#CCOC(=O)[C@@H](C)Oc1ccc(Oc2ncc(Cl)cc2F)cc1` [Clodinofop-Propargyl], the “logP, Average” value was found to be 4.519.
As for `N#CC(CCc1ccc(Cl)cc1)(Cn1cncn1)c1ccccc1` (centres unmarked) [Febenuconazole], the “logP, Average” value was 3.716.
In the case of `CCC(CC)Nc1c([N+](=O)[O-])cc(C)c(C)c1[N+](=O)[O-]` [Prowl], the “logP, Average” value is listed as 5.108.
With `Cc1ccc(N(SC(F)(Cl)Cl)S(=O)(=O)N(C)C)cc1` [Tolyfluanid], the “logP, Average” value is 3.934.

Still in this series, the particulars now being: pH = 7; based on logP assigned to toluene 2.605 and triphenylene 6.266.
Consider `CO/C=C(/C(=O)OC)c1ccccc1Oc1cc(Oc2ccccc2C#N)ncn1` [Azoxystrobin], for which the “logP, Average” value worked out at 3.050.
On the same count and under the same terms, with `N#Cc1c(Cl)c(Cl)c(Cl)c(C#N)c1Cl` [Chlorthalonil] the figure was 4.234.
Regarding `C#CCOC(=O)[C@@H](C)Oc1ccc(Oc2ncc(Cl)cc2F)cc1` [Clodinofop-Propargyl], the “logP, Average” value amounted to 4.522.
Regarding `N#CC(CCc1ccc(Cl)cc1)(Cn1cncn1)c1ccccc1` (centres unmarked) [Febenuconazole], the “logP, Average” value is listed as 3.730.
Same read-out and setting: with `CCC(CC)Nc1c([N+](=O)[O-])cc(C)c(C)c1[N+](=O)[O-]` [Prowl] the figure was 5.101; with `Cc1ccc(N(SC(F)(Cl)Cl)S(=O)(=O)N(C)C)cc1` [Tolyfluanid], 3.930.

Still in this series, the particulars now being: pH = 7; based on logP assigned to toluene 2.605 and triphenylene 6.266; read-out: logP, Average.
In the case of `COP(=S)(OC)Oc1c(Cl)cc(C)cc1Cl` [Tolclofos-methyl], the chromatographic logP stood at 4.42.
